Tests used:
Assay in all cases: relative viability (nuclei count vs DMSO), 5 days (fraction); higher = more cells survive
Gemcitabine + Pictilisib = compound: Nc1ccn([C@@H]2O[C@H](CO)[C@@H](O)C2(F)F)c(=O)n1 [Gemcitabine] + CS(=O)(=O)N1CCN(Cc2cc3nc(-c4cccc5[nH]ncc45)nc(N4CCOCC4)c3s2)CC1 [Pictilisib] (partner 1 µM)
Summary of the method: (§1)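 Relative viability was taken as the ratio of nuclei in treated wells to nuclei in vehicle wells. Lung cancer cell lines in 1536-well plates received compounds by pin tool one day after seeding, either one drug alone or a fixed anchor-drug dose plus five library-drug doses (not always all listed) in √10 steps. Nuclei were counted on 4× images after 5 days of treatment, and values are medians of duplicate plates.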

[1] = compound: Nc1ccn([C@@H]2O[C@H](CO)[C@@H](O)C2(F)F)c(=O)n1 [Gemcitabine] + CC(=O)c1c(C)c2cnc(Nc3ccc(N4CCNCC4)cn3)nc2n(C2CCCC2)c1=O [Palbociclib] (partner 0.5 µM)
Summary of the method: as §1

Gemcitabine + Foretinib = compound: Nc1ccn([C@@H]2O[C@H](CO)[C@@H](O)C2(F)F)c(=O)n1 [Gemcitabine] + COc1cc2c(Oc3ccc(NC(=O)C4(C(=O)Nc5ccc(F)cc5)CC4)cc3F)ccnc2cc1OCCCN1CCOCC1 [Foretinib] (partner 0.25 µM)
Summary of the method: as §1

Gemcitabine + Bortezomib = compound: Nc1ccn([C@@H]2O[C@H](CO)[C@@H](O)C2(F)F)c(=O)n1 [Gemcitabine] + CC(C)C[C@H](NC(=O)[C@H](Cc1ccccc1)NC(=O)c1cnccn1)B(O)O [Bortezomib] (partner 0.002 µM)
Summary of the method: as §1

Cell Line | relative viability (Gemcitabine + Pictilisib; first compound 0.001 µM) | relative viability (Gemcitabine + Pictilisib; first compound 0.003162 µM) | relative viability (Gemcitabine + Pictilisib; first compound 0.01 µM) | relative viability (Gemcitabine + Pictilisib; first compound 0.03162 µM) | relative viability (Gemcitabine + Pictilisib; first compound 0.1 µM) | relative viability ([1]; first compound 0.001 µM) | relative viability ([1]; first compound 0.003162 µM) | relative viability ([1]; first compound 0.01 µM) | relative viability ([1]; first compound 0.03162 µM) | relative viability ([1]; first compound 0.1 µM) | relative viability (Gemcitabine + Foretinib; first compound 0.001 µM) | relative viability (Gemcitabine + Foretinib; first compound 0.003162 µM) | relative viability (Gemcitabine + Foretinib; first compound 0.01 µM) | relative viability (Gemcitabine + Foretinib; first compound 0.03162 µM) | relative viability (Gemcitabine + Foretinib; first compound 0.1 µM) | relative viability (Gemcitabine + Bortezomib; first compound 0.001 µM) | relative viability (Gemcitabine + Bortezomib; first compound 0.003162 µM) | relative viability (Gemcitabine + Bortezomib; first compound 0.01 µM) | relative viability (Gemcitabine + Bortezomib; first compound 0.03162 µM) | relative viability (Gemcitabine + Bortezomib; first compound 0.1 µM)
HCC-366 | 0.188 | 0.136 | 0.0591 | 0.0347 | 0.0366 | 0.402 | 0.383 | 0.205 | 0.0402 | 0.026 | 0.965 | 0.989 | 0.417 | 0.0476 | 0.0377 | 1.05 | 1.01 | 0.425 | 0.0213 | 0.0123
HCC-827 | 1.11 | 0.845 | 0.89 | 0.591 | 0.389 | 0.497 | 0.304 | 0.309 | 0.197 | 0.164 | 1 | 0.865 | 0.565 | 0.332 | 0.177 | 0.964 | 1.08 | 0.875 | 0.607 | 0.427
HOP-62 | 0.78 | 0.464 | 0.315 | 0.0682 | 0.0859 | 0.358 | 0.339 | 0.184 | 0.0959 | 0.0958 | 1.01 | 0.965 | 0.306 | 0.103 | 0.0927 | 0.506 | 0.39 | 0.209 | 0.0446 | 0.0459
IA-LM | 0.336 | 0.332 | 0.219 | 0.1 | 0.0556 | – | – | – | – | – | 1.07 | 0.916 | 1.11 | 0.0445 | 0.0363 | 0.882 | 0.805 | 0.651 | 0.0803 | 0.0498
LC-2-ad | 0.517 | 0.726 | 0.242 | 0.129 | 0.105 | 0.509 | 0.555 | 0.424 | 0.496 | 0.317 | 0.943 | 0.829 | 0.712 | 0.206 | 0.158 | 0.998 | 0.992 | 0.476 | 0.11 | 0.0847
LCLC-97TM1 | 0.141 | 0.167 | 0.126 | 0.11 | 0.12 | 0.17 | 0.135 | 0.134 | 0.0816 | 0.0933 | 0.886 | 0.832 | 0.597 | 0.136 | 0.118 | 0.752 | 0.19 | 0.0897 | 0.0533 | 0.0696
LK-2 | 0.527 | – | 0.419 | 0.271 | 0.288 | 0.798 | 0.696 | 0.403 | 0.119 | 0.126 | 1.16 | 1.13 | 0.808 | 0.276 | 0.18 | – | – | – | – | –
NCI-H358 | 0.338 | 0.27 | 0.188 | 0.194 | 0.161 | 0.124 | 0.0834 | 0.0975 | 0.0732 | 0.08 | 0.729 | 0.168 | 0.0883 | 0.0934 | 0.0705 | – | – | – | – | –
NCI-H522 | – | – | – | – | – | 0.885 | 0.729 | 0.528 | 0.394 | 0.364 | – | – | – | – | – | – | – | – | – | –
NCI-H596 | 0.369 | 0.436 | 0.438 | 0.335 | 0.293 | – | – | – | – | – | 0.635 | 0.706 | 0.287 | 0.196 | 0.309 | 1 | 1.11 | 0.555 | 0.349 | 0.41
NCI-H1395 | 0.544 | 0.666 | 0.413 | 0.351 | 0.347 | 0.614 | 0.627 | 0.445 | 0.352 | 0.347 | 0.922 | 0.763 | 0.541 | 0.388 | 0.349 | – | – | – | – | –
NCI-H1563 | 0.599 | 0.669 | 0.652 | 0.634 | 0.506 | – | – | – | – | – | 0.948 | 0.916 | 0.706 | 0.566 | 0.526 | 0.93 | 0.965 | 0.851 | 0.608 | 0.537
NCI-H1648 | – | – | – | – | – | 0.267 | 0.273 | 0.262 | 0.226 | 0.327 | – | – | – | – | – | – | – | – | – | –
NCI-H1703 | 0.208 | 0.227 | 0.158 | 0.154 | 0.132 | – | – | – | – | – | 0.277 | 0.238 | 0.185 | 0.175 | 0.167 | 0.306 | 0.209 | 0.144 | 0.11 | 0.111
NCI-H1792 | 0.238 | 0.226 | 0.111 | 0.0979 | 0.0699 | 0.699 | 0.596 | 0.395 | 0.254 | 0.194 | – | – | – | – | – | 1.08 | 0.925 | 0.308 | 0.133 | 0.093
NCI-H1793 | 0.262 | 0.282 | 0.291 | 0.186 | 0.176 | 0.297 | 0.3 | 0.267 | 0.167 | 0.145 | 0.71 | 0.652 | 0.437 | 0.141 | 0.136 | – | – | – | – | –
NCI-H1944 | 0.352 | 0.373 | 0.355 | 0.241 | 0.22 | 0.357 | 0.286 | 0.268 | 0.229 | 0.171 | 0.891 | 0.992 | 0.847 | 0.345 | 0.199 | – | – | – | – | –
NCI-H2170 | 0.318 | 0.359 | 0.215 | 0.157 | 0.156 | 0.408 | 0.394 | 0.266 | 0.184 | 0.13 | 1.02 | 1.03 | 0.909 | 0.3 | 0.518 | – | – | – | – | –
NCI-H2342 | – | – | – | – | – | 0.484 | 0.527 | 0.46 | 0.433 | 0.393 | 1.08 | 1 | 0.712 | 0.389 | 0.258 | – | – | – | – | –
SK-MES-1 | 0.333 | 0.254 | 0.164 | 0.136 | 0.149 | 0.257 | 0.274 | 0.229 | 0.223 | 0.225 | 0.987 | 0.646 | 0.319 | 0.191 | 0.201 | – | – | – | – | –
SW 900 | – | – | – | – | – | 0.551 | 0.562 | 0.286 | 0.176 | 0.186 | 0.697 | 0.511 | 0.117 | 0.0938 | 0.0882 | – | – | – | – | –
